Source: patent publication US20140171316A1, “ANTHRANILAMIDE COMPOUNDS AND THEIR USE AS PESTICIDES” (BASF SE, priority 2011, published 2014)

Legend:
Type in all cases: in vivo
Heliothis virescens = test: Tobacco budworm (Heliothis virescens) microtiter plate insect diet test; conditions: 120 h, sprayed onto insect diet, 5 days, read-out: mortality in comparison with untreated controls (egg and larval mortality)
Method: For evaluating control of tobacco budworm (Heliothis virescens) the test unit consisted of 96-well-microtiter plates containing an insect diet and 15-25 H. virescens eggs.
The compounds were formulated using a solution containing 75% v/v water and 25% v/v DMSO. Different concentrations of formulated compounds were sprayed onto the insect diet at 10 μl, using a custom built micro atomizer, at two replications.
(§1) After application, microtiter plates were incubated at about 28±1° C. and about 80±5% relative humidity for 5 days. Egg and larval mortality was then visually assessed.

Dichromothrips corbetti = test: Orchid thrips (Dichromothrips corbetti) floral-immersion test; conditions: dipped orchid flowers, adult thrips, 72 hours after treatment, read-out: mortality in comparison with untreated controls
Method: Dichromothrips corbetti adults used for bioassay were obtained from a colony maintained continuously under laboratory conditions. For testing purposes, the test compound was diluted in a 1:1 mixture of acetone:water (vol:vol), plus 0.01% vol/vol Alkamuls® EL 620 surfactant.
Thrips potency of each compound was evaluated by using a floral-immersion technique. Plastic petri dishes were used as test arenas. All petals of individual, intact orchid flowers were dipped into treatment solution and allowed to dry. Treated flowers were placed into individual petri dishes along with about 20 adult thrips. The petri dishes were then covered with lids. All test arenas were held under continuous light and a temperature of about 28° C. for duration of the assay. After 3 days, the numbers of live thrips were counted on each flower, and along inner walls of each petri dish. The percent mortality was recorded 72 hours after treatment.

Myzus persicae = test: Green peach aphid (Myzus persicae) spray test on bell pepper plants; conditions: 120 h, sprayed infested bell pepper plants, after 5 days, read-out: mortality in comparison with untreated controls
Text: The active compounds were formulated in cyclohexanone as a 10,000 ppm solution supplied in tubes. The tubes were inserted into an automated electrostatic sprayer equipped with an atomizing nozzle and they served as stock solutions for which lower dilutions were made in 50% acetone:50% water (v/v). A nonionic surfactant (Kinetic®) was included in the solution at a volume of 0.01% (v/v).
Bell pepper plants at the first true-leaf stage were infested prior to treatment by placing heavily infested leaves from the main colony on top of the treatment plants. Aphids were allowed to transfer overnight to accomplish an infestation of 30-50 aphids per plant and the host leaves were removed. The infested plants were then sprayed by an automated electrostatic plant sprayer equipped with an atomizing spray nozzle. The plants were dried in the sprayer fume hood, removed, and then maintained in a growth room under fluorescent lighting in a 24-hr photoperiod at about 25° C. and about 20-40% relative humidity. Aphid mortality on the treated plants, relative to mortality on untreated control plants, was determined after 5 days.

Ceratitis capitata = test: Mediterranean fruitfly (Ceratitis capitata) microtiter plate insect diet test; conditions: 120 h, sprayed onto insect diet, 5 days, read-out: mortality in comparison with untreated controls (egg and larval mortality)
Method: For evaluating control of Mediterranean fruitfly (Ceratitis capitata) the test unit consisted of microtiter plates containing an insect diet and 50-80 C. capitata eggs.
The compounds were formulated using a solution containing 75% v/v water and 25% v/v DMSO. Different concentrations of formulated compounds were sprayed onto the insect diet at 5 μl, using a custom built micro atomizer, at two replications.
as §1

Anthonomus grandis = test: Boll weevil (Anthonomus grandis) microtiter plate insect diet test; conditions: 120 h, sprayed onto insect diet, 5 days, read-out: mortality in comparison with untreated controls (egg and larval mortality)
Method: For evaluating control of boll weevil (Anthonomus grandis) the test unit consisted of 24-well-microtiter plates containing an insect diet and 20-30 A. grandis eggs.
The compounds were formulated using a solution containing 75% v/v water and 25% v/v DMSO. Different concentrations of formulated compounds were sprayed onto the insect diet at 20 μl, using a custom built micro atomizer, at two replications.
After application, microtiter plates were incubated at about 23±1° C. and about 50±5% relative humidity for 5 days. Egg and larval mortality was then visually assessed.

Megoura viciae = test: Vetch aphid (Megoura viciae) broad bean leaf disk test; conditions: foliar, 120 h, sprayed broad bean leaf disks, adult aphids, 5 days, read-out: mortality in comparison with untreated controls
Method: For evaluating control of vetch aphid (Megoura viciae) through contact or systemic means the test unit consisted of 24-well-microtiter plates containing broad bean leaf disks.
The compounds were formulated using a solution containing 75% v/v water and 25% v/v DMSO. Different concentrations of formulated compounds were sprayed onto the leaf disks at 2.5 μl, using a custom built micro atomizer, at two replications.
After application, the leaf disks were air-dried and 5-8 adult aphids placed on the leaf disks inside the microtiter plate wells. The aphids were then allowed to suck on the treated leaf disks and incubated at about 23±1° C. and about 50±5% relative humidity for 5 days. Aphid mortality and fecundity was then visually assessed.

Aphis craccivora = test: Cowpea aphid (Aphis craccivora) spray test on potted cowpea plants; conditions: sprayed cowpea plants, assessed after 72 hours, read-out: mortality in comparison with untreated controls
Method: The active compound was dissolved at the desired concentration in a mixture of 1:1 (vol:vol) distilled water:acetone. Surfactant (Alkamuls® EL 620) is added at a rate of 0.1% (vol/vol). The test solution was prepared at the day of use.
Potted cowpea plants were colonized with approximately 50-100 aphids of various stages by manually transferring a leaf tissue cut from infested plant 24 hours before application. Plants were sprayed after the pest population has been recorded. Treated plants were maintained on light carts at about 28° C. Percent mortality was assessed after 72 hours.

CNC(=O)c1cc(/C=N/OC)cc(C)c1NC(=O)c1cnn(CC(F)(F)F)c1-c1ncccc1Cl [Compound 1-1, 5-(3-chloro-2-pyridyl)-N-[4-[(E)-methoxyiminomethyl]-2-methyl-6-(methylcarbamoyl)phenyl]-1-(2,2,2-trifluoroethyl)pyrazole-4-carboxamide]
> 75%: mortality at 2500 ppm (Heliothis virescens) | mortality at 500 ppm (Dichromothrips corbetti) | mortality at 2500 ppm (Myzus persicae) | mortality at 2500 ppm (Ceratitis capitata) | mortality at 2500 ppm (Anthonomus grandis) | mortality at 2500 ppm (Megoura viciae) | mortality at 500 ppm (Aphis craccivora)

CNC(=O)c1cc(-n2cncn2)cc(C)c1NC(=O)c1cnn(CC(F)(F)F)c1-c1ncccc1Cl [Compound 1-2, 5-(3-chloro-2-pyridyl)-N-[2-methyl-6-(methylcarbamoyl)-4-(1,2,4-triazol-1-yl)phenyl]-1-(2,2,2-trifluoroethyl)pyrazole-4-carboxamide]
> 75%: mortality at 2500 ppm (Heliothis virescens) | mortality at 500 ppm (Dichromothrips corbetti) | mortality at 2500 ppm (Myzus persicae) | mortality at 2500 ppm (Ceratitis capitata) | mortality at 2500 ppm (Anthonomus grandis) | mortality at 2500 ppm (Megoura viciae) | mortality at 500 ppm (Aphis craccivora)
